Patent publication US11426473B2, “Nitrogen-containing compound or salt thereof, or metal complex thereof” (FUJIFILM Corporation, priority 2013, dated 2022)

Tested on: U87MG cells subcutaneous tumor
Assay: Concentration of radioactivity in tumor of labeled compounds (Test Example 4)
Assay type: in vivo, mouse
Details: tail vein, 111In 740 kBq, 64Cu and 90Y 500 kBq
Method: U87MG cells were subcutaneously transplanted at 1×10^7 cells/mouse to the right flank of Balb/cAJcl-nu/nu (CLEA Japan, Inc. or Japan SLC, Inc., 6 to 9 weeks old). After 2 to 3 weeks, the mice were divided into groups each involving 3 individuals per point in time when their tumors became 200 to 500 mm^3. The ^111In-labeled compound (740 kBq) was administered to the tail veins of the mice.
After a given time, the animals were sacrificed to extract their tumors. The weights of the tumors were measured, and the radioactivity was measured using a gamma counter to calculate the concentration of radioactivity in the tumors (% ID/g). In the same way as above, the concentration of radioactivity in the tumors (% ID/g) was calculated for the ^64Cu-labeled compound (500 kBq) and the ^90Y-labeled compound (500 kBq).

| Structure (SMILES) | Concentration of radioactivity in tumor (4 hours later) [% ID/g] | Concentration of radioactivity in tumor (24 hours later) [% ID/g] |
| --- | --- | --- |
| O=C([O-])CN1CCN(CC(=O)[O-])CCN(CC(=O)NC(CS(=O)(=O)O)C(=O)NC(CS(=O)(=O)O)C(=O)NCCNC(=O)CCCOc2cncc(C(CC(=O)O)n3ccc4cc(OCCc5ccc6c(n5)NCCC6)ccc43)c2)CCN(CC(=O)[O-])CC1.[111In+3] (mixture of isomers) [[^111In]-(I21)] | 10.60 | 9.95 |
| Cc1cc(OCCCC(=O)NCCNC(=O)[C@H](CS(=O)(=O)O)NC(=O)CN2CCN(CC(=O)[O-])CCN(CC(=O)[O-])CCN(CC(=O)[O-])CC2)cc(C)c1S(=O)(=O)N[C@@H](CNC(=O)c1ccc(CCc2ccc3c(n2)NCCC3)cc1)C(=O)O.[111In+3] [[^111In]-(B2)] | 8.58 | 11.00 |
| Cc1cc(OCCCC(=O)NCCNC(=O)COCCOCCNC(=O)CN2CCN(CC(=O)[O-])CCN(CC(=O)[O-])CCN(CC(=O)[O-])CC2)cc(C)c1S(=O)(=O)N[C@@H](CNC(=O)c1ccc(CCc2ccc3c(n2)NCCC3)cc1)C(=O)O.[111In+3] [[^111In]-(D3)] | 10.50 | 7.73 |
| Cc1cc(OCCCC(=O)NCCNC(=O)COCCOCCNC(=O)C(CCCCN)NC(=O)CN2CCN(CC(=O)[O-])CCN(CC(=O)[O-])CCN(CC(=O)[O-])CC2)cc(C)c1S(=O)(=O)NC(CNC(=O)c1ccc(CCc2ccc3c(n2)NCCC3)cc1)C(=O)O.[111In+3] (centres unmarked) [[^111In]-(E3)] | 11.00 | 12.40 |
| Cc1cc(OCCCC(=O)NCCNC(=O)COCCOCCNC(=O)COCCOCCNC(=O)CN2CCN(CC(=O)[O-])CCN(CC(=O)[O-])CCN(CC(=O)[O-])CC2)cc(C)c1S(=O)(=O)N[C@@H](CNC(=O)c1ccc(CCc2ccc3c(n2)NCCC3)cc1)C(=O)O.[111In+3] [[^111In]-(F3)] | 11.80 | 8.41 |
| Cc1cc(OCCCC(=O)NCCNC(=O)COCCOCCNC(=O)[C@H](CS(=O)(=O)O)NC(=O)CN2CCN(CC(=O)[O-])CCN(CC(=O)[O-])CCN(CC(=O)[O-])CC2)cc(C)c1S(=O)(=O)N[C@@H](CNC(=O)c1ccc(CCc2ccc3c(n2)NCCC3)cc1)C(=O)O.[111In+3] [[^111In]-(G3)] | 10.50 | 9.82 |
| Cc1cc(OCCCC(=O)NCCNC(=O)C(CS(=O)(=O)O)NC(=O)CCC(NC(=O)CN2CCN(CC(=O)[O-])CCN(CC(=O)[O-])CCN(CC(=O)[O-])CC2)C(=O)NC(CS(=O)(=O)O)C(=O)NCCNC(=O)CCCOc2cc(C)c(S(=O)(=O)NC(CNC(=O)c3ccc(CCc4ccc5c(n4)NCCC5)cc3)C(=O)O)c(C)c2)cc(C)c1S(=O)(=O)NC(CNC(=O)c1ccc(CCc2ccc3c(n2)NCCC3)cc1)C(=O)O.[111In+3] (centres unmarked) [[^111In]-(H9)] | 9.17 | 8.74 |
| Cc1cc(OCCCC(=O)NCCNC(=O)[C@H](CS(=O)(=O)O)NC(=O)[C@H](CS(=O)(=O)O)NC(=O)CN2CCN(CC(=O)[O-])CCN(CC(=O)[O-])CCN(CC(=O)[O-])CC2)cc(C)c1S(=O)(=O)N[C@@H](CNC(=O)c1ccc(CCc2cccc(N)n2)cc1)C(=O)O.[111In+3] [[^111In]-(N3)] | 9.75 | 5.93 |
| Cc1cc(OCCCC(=O)NCCNC(=O)C(CS(=O)(=O)O)NC(=O)C(CS(=O)(=O)O)NC(=O)CN2CCN(CC(=O)[O-])CCN(CC(=O)[O-])CCN(CC(=O)[O-])CC2)cc(C)c1S(=O)(=O)NC(CNC(=O)CCCCc1ccc2c(n1)NCCC2)C(=O)O.[111In+3] (centres unmarked) [[^111In]-(O10)] | 12.80 | 12.40 |
| Cc1cc(OCCCC(=O)NCCNC(=O)[C@H](CS(=O)(=O)O)NC(=O)[C@H](CS(=O)(=O)O)NC(=O)CN2CCN(CC(=O)[O-])CCN(CC(=O)[O-])CCN(CC(=O)[O-])CC2)cc(C)c1S(=O)(=O)N[C@@H](CNC(=O)c1ccc(CCc2ccc3c(n2)NCCC3)s1)C(=O)O.[111In+3] [[^111In]-(X9)] | 8.54 | 8.54 |
